Series [1] can be described thus: Bioavailability of amikacin from inhaled liposomal amikacin formulations: lung homogenate levels. Particulars: CD IGS, rat, in vivo, 5 mg/kg.
A further series deals with P. aeruginosa PA01. Briefly: In vitro release and activity in Slide-A-Lyzer cartridges, CFU after 24 hrs. The format is cell-based. Particulars: amikacin 50 μg/mL, preliminary experiments. Here is the method: An in vitro test of release and activity was performed under conditions similar to the pharmacokinetics in the lung, where it has been previously shown that free antibiotic is cleared on the time scale of a few hours. […] Free drug dialyzes out of the cartridges on the time scale of hours under these conditions. After 24 hrs., the samples were withdrawn from the cartridges and plated to measure CFU.

The nature of series [2]: Clinical chemical assay (TDX) of aminoglycoside content in tissue of treated infected rats. The format is in vivo. The settings on record: Sprague-Dawley, other: intratracheal (IT), 10 mg/rat. Here is the method: […] The clinical chemical assay was performed using a TDX instrument while the bioassay was performed by measuring inhibition zones on agar plates embedded with Bacillus subtilis.

The next series relates to rat alveolar macrophages. Particulars: in vivo.
On the set-up of series [3]: species or system rats. The settings on record: rat, in vivo. Here is the method: The binding of aminoglycosides to sputum of CF patients is a concern, particularly if this binding reduces the bioactivity of the antiinfective (Hunt et al., 1995). To determine whether liposomal formulations of amikacin can retain biological activity over a prolonged period of time, normal rats were administered liposomal formulations of amikacin by intratracheal instillation. This was followed by its removal at 2 or 24 hours via a bronchial alveolar lavage (BAL) to determine biological activity. […] Amikacin concentration was determined employing a TDX instrument and biological activity determined using a Mueller Hinton broth dilution assay (Pseudomonas aeruginosa).

For series [4] the following is noted: mouse, in vivo, po, 15 mg/kg.
[5] abbreviates: lung homogenate, homogenized rat lungs following the 14 day experiment, read-out: Clinical Assay.

Three compounds from patent US8802137B2, “Sustained release of antiinfectives” (Insmed Incorporated, priority 2002, dated 2014) can be followed below.

Where two headings read alike, the source gives them in different places.

From the text for rat alveolar macrophages: The basal and stimulated functions of rat alveolar macrophages obtained by lavage were studied with and without administration of liposomal amikacin formulations and compared to various controls.

Take `NCC[C@H](O)C(=O)N[C@@H]1C[C@H](N)[C@@H](O[C@H]2O[C@H](CN)[C@@H](O)[C@H](O)[C@H]2O)[C@H](O)[C@H]1O[C@H]1O[C@H](CO)[C@@H](O)[C@H](N)[C@H]1O` [Free amikacin, amikacin]: the concentration at 24 h in series [1] is around 500000 ng/g. The “reduction of CFUs” value in the series with P. aeruginosa PA01 is on record as “only slightly reduced the CFU”. In addition, the concentration at 14 day in series [2] (setting [5]) came out at 2000 ng/mL. Also, the “inflammatory response in the lungs (nitrates and TNF-α in BALF)” value in the series with rat alveolar macrophages is on record as “did not produce a significant acute or delayed inflammatory response”.

As for `NC[C@H]1O[C@H](O[C@H]2[C@H](O)[C@@H](O[C@H]3O[C@H](CO)[C@@H](O)[C@H](N)[C@H]3O)[C@H](N)C[C@@H]2N)[C@H](N)C[C@@H]1O` [Free tobramycin, tobramycin], the concentration at 14 day in series [2] (setting [5]) turned out to be 1400 ng/mL; in series [2] (rat, kidney, kidneys, following the 14 day experiment, read-out: detectable levels of aminoglycoside in the kidneys), 100 ng/mL. Besides, the “drug in a BAL” value in series [3] was “undetectable”.

In the case of `O=C(O)c1cn(C2CC2)c2cc(N3CCNCC3)c(F)cc2c1=O` [free ciprofloxacin, ciprofloxacin], the “detectability of drug in the lung over time” value in series [4] is “undetectable in less than two hours”.
